Assay results as given in patent US12728173B2, “Heptamethine cyanine near-infrared fluorescent dye, preparation method therefor and use thereof” (NANJING NUOYUAN MEDICAL DEVICES CO., LTD, priority 2024, dated 2026).

Experiments:
[1] = Subcutaneous HepG2 tumor-bearing mouse models for in vivo imaging; conditions: tail vein, 0.5 mg/kg
Method: Subcutaneous HepG2 Tumor-Bearing Mouse Models (Human-Derived Liver Cancer Cells) for In Vivo Imaging
Test samples: the heptamethine cyanine near-infrared fluorescent dyes provided by Examples 1-4, and the heptamethine cyanine near-infrared fluorescent dyes provided by Comparative Examples 1-3.
Testing method: The subcutaneous HepG2 tumor-bearing mouse models were subjected to tail vein administration of the above samples (0.5 mg/kg, 100 μL of glucose injection), respectively. Indocyanine green (0.5 mg/kg, 100 μL of glucose injection) was taken as a control. After the administration, fluorescence imaging was performed using a surgical fluorescence imaging system (NANJING NUOYUAN MEDICAL DEVICES CO., LTD, 10B), at 0 h (before administration), 6 h, 12 h, 24 h, and 48 h in sequence.

tumor tissues = conditions: prior art CN111196896A; cited from earlier work

CC1(C)C(/C=C/C2=C(Cl)C(=C/C=C3/N(CCCS(=O)(=O)O)c4ccccc4C3(C)C)/CCC2)=[N+](CCCS(=O)(=O)O)c2ccc(S(=O)(=O)O)cc21 [Comparative Example 1]
hepatic accumulation and metabolism [1]: hepatic accumulation and non-metabolism | hepatic accumulation (tumor tissues): deficiency of hepatic accumulation | tumor retention (tumor tissues): exceeding 48 h | tumor targeting capability compared with ICG (tumor tissues): stronger
